Measured values reported in paper PMC9788418, “Design, Synthesis and Biological Evaluation of Syn and Anti-like Double Warhead Quinolinones Bearing Dihydroxy Naphthalene Moiety as Epidermal Growth Factor Receptor Inhibitors with Potential Apoptotic Antiproliferative Action” (Molecules, 2022).
Like-named read-outs stand apart in the source and are kept apart here.

Key:
four cancer cell lines = system: four cancer cell lines; parameters: method as in PMID 35195309; settings: cited from earlier work
caspase-3 [1] = system: caspase-3; parameters: method as in PMID 35195309; settings: human Panc-1 cancer cells; cited from earlier work
Bcl-2 = system: Bcl-2; parameters: method as in PMID 35195309; settings: cited from earlier work
EGFR [2] = target: T1, EGFR (Homo sapiens, UniProt P00533); parameters: 645–1186); His6 (N); made in house; host or cells: Sf-9 insect cells (baculovirus; pBlueBacHis2B and pFASTBacHTc vectors; settings: cited from earlier work
T1 sequence (P00533 669-1210): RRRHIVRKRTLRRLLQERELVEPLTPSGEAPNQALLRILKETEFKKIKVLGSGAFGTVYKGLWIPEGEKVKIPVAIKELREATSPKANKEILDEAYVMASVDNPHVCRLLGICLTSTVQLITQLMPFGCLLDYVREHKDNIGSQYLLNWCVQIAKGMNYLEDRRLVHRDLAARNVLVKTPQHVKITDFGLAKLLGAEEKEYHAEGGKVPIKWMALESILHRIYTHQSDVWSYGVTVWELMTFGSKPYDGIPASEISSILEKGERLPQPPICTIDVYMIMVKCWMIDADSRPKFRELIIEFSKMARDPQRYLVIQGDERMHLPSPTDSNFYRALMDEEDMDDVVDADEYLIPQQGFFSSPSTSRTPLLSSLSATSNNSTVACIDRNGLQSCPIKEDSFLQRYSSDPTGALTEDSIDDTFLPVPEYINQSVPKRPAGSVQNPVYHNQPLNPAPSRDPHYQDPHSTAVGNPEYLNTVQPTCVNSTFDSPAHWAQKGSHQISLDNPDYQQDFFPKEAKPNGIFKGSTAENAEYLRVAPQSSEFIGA

caspase-9 = system: caspase-9; parameters: method as in PMID 35195309; settings: human Panc-1 cancer cells; cited from earlier work
Cytochrome-C = system: Cytochrome-C; parameters: method as in PMID 35195309; settings: human Panc-1 cancer cells; cited from earlier work
Bax = system: Bax; parameters: method as in PMID 35195309; settings: vs normal untreated cells; cited from earlier work
EGFR [3] = target: T1, EGFR; assay: EGFR inhibitory assay (EGFR-TK, DELFIA/time-resolved fluorometry)
Description: EGFR-TK assay was performed to evaluate the inhibitory potency of novel compounds against
EGFR. Baculoviral expression vectors including pBlueBacHis2B and pFASTBacHTc were used
5ʹ upstream to the EGFR sequence comprised a sequence that encoded (His)6. Sf-9 cells were infected for 72h for protein expression. The pellets of Sf-9 cells were solubilized in a buffer containing sodium vanadate (100 µM), aprotinin (10 µg/mL), triton (1%), HEPES buffer (50mM), ammonium molybdate (10 µM), benzamidine HCl (16 µg/mL), NaCl (10 mM), leupeptin (10 µg/mL) and pepstatin (10 µg/mL) at 0°C for 20 min at pH 7.4, followed by centrifugation for 20 min.
To eliminate the non-specifically bound material, a Ni-NTA super flow packed column was used to pass through and wash the crude extract supernatant first with 10 mM and then with 100 mM imidazole. Histidine-linked proteins were first eluted with 250 and then with 500 mM imidazole after (1 picture or pasted object on this page, not shown here)
dialysis against NaCl (50 mM), HEPES (20 mM), glycerol (10%) and 1 µg/mL each of aprotinin, leupeptin and pepstatin for 120 min. The purification was performed either at 4 °C or on ice. To
(§10) record autophosphorylation level, EGFR kinase assay was carried out based on DELFIA/Time-
(§11) Resolved Fluorometry. The compounds were first dissolved in DMSO absolute, after dilution to
Each compound (10 µL) was incubated
(§12) with recombinant enzyme (10 µL, 5 ng for EGFR, 1:80 dilution in 100 mM HEPES) for 10 min at
(§13) 25 °C, after the addition of 5X buffer (10 µL, containing 2 mM MnCl2, 100 µM Na3VO4, 20 mM HEPES and 1 mM DTT) and ATP-MgCl2 (20 µL, containing 0.1 mM ATP and 50 mM MgCl2) and
(§14) incubation for 1h. The negative and positive controls were included in each plate by the incubation
(§15) of enzyme either with or without ATP-MgCl2. The liquid was removed after incubation and the plates
(§16) were washed thrice using wash buffer. Europium-tagged antiphosphotyrosine antibody (75 µL, 400
(§17) ng) was added to each well followed by incubation of 1h and then washing of the plates using buffer.
(§18) The enhancement solution was added to each well and the signal was recorded at excitation and
(§19) The autophosphorylation percentage inhibition by compounds was calculated using the following equation:

[4] = system: Panc-1 (pancreas cancer cell line); assay: Antiproliferative assay; type: cell-based, human; settings: read-out: Antiproliferative Activity IC50 ± SEM, Panc-1
Description: (§1) 4.2. Biological evaluation
4.2.1. Cytotoxic activity using MTT Assay and evaluation of IC50 […]
cells were seeded at a density of 10^4 cells mL-1 in flat-bottomed culture plates containing 96 wells each. After 24 h, medium was removed from the plates and the compounds in (in 0.1% DMSO) were added (in 200 μL medium to yield a final concentration of 0.1% v/v) to the wells of plates. A single […]
incubation, medium was removed completely from the plates followed by addition of MTT (0.4 mg/mL in medium) to each well and subsequent incubation of plates for 3h. MTT (along with the medium) was removed and DMSO (150μL) was added to each well of the culture plates, followed by vortexing and subsequent measurement of absorbance (at 540 nm) using microplate reader. The data […]
(§2) 4.2.1.2. Assay for antiproliferative effect
(§3) To explore the antiproliferative potential of compounds MTT assay was performed according to previously reported procedure using different cell lines to explore the antiproliferative potential of compounds propidium iodide fluorescence assay was performed using different cell lines. To calculate the total nuclear DNA, a fluorescent dye (propidium iodide, PI) is used which can attach to the DNA, thus offering a quick and precise technique. PI cannot pass through the cell membrane and its signal intensity can be considered as directly proportional to quantity of cellular DNA. Cells whose cell membranes are damaged or have changed permeability are counted as dead ones. The assay was performed by seeding the cells of different cell lines at a density of 3000-7500 cells/well (in 200µl […]
(§4) atmospheric conditions. The medium was removed; the compounds were added to the plates at 10 µM concentrations (in 0.1% DMSO) in triplicates, followed by incubation for 48 h. DMSO (0.1%) was used as control. After incubation, medium was removed followed by the addition of PI (25 µl, 50µg/mL in water/medium) to each well of the plates. At -80 °C, the plates were allowed to freeze for 24 h, followed by thawing at 25 °C. A fluorometer (Polar-Star BMG Tech) was used to record the readings at excitation and emission wavelengths of 530 and 620 nm for each well. The percentage cytotoxicity of compounds was calculated using the following formula:
(§5) Where ATC= Absorbance of treated cells and AC= Absorbance of control. […]
(§6) positive control in the assay.

[5] = system: four tested cancer cell lines (A-549, MCF-7, Panc-1, HT-29); assay: Antiproliferative assay, average over the four cell lines; type: cell-based, human; settings: for GI50: mean of the four cancer cell lines
Description: The newly synthesized compounds were tested for antiproliferative activity against four different types of cancer cells: A-549 (epithelial cancer cell line), MCF-7 (breast cancer cell line), Panc-1 (pancreas cancer cell line), and HT-29 (colon cancer cell line).
After 24 h, medium was removed from the plates and the compounds in (in 0.1% DMSO) were added (in 200 μL medium to yield a final concentration of 0.1% v/v) to the wells of plates. A single compound was designated with four wells followed by incubation of plates for 96h at 37°C. After incubation, medium was removed completely from the plates followed by addition of MTT (0.4 mg/mL in medium) to each well and subsequent incubation of plates for 3h. MTT (along with the medium) was removed and DMSO (150μL) was added to each well of the culture plates, followed by vortexing and subsequent measurement of absorbance (at 540 nm) using microplate reader. The data are shown as percentage inhibition of proliferation in comparison with controls containing 0.1% 4.2.1.2. Assay for antiproliferative effect
To explore the antiproliferative potential of compounds MTT assay was performed according to previously reported procedure using different cell lines to explore the antiproliferative potential of compounds propidium iodide fluorescence assay was performed using different cell lines. To calculate the total nuclear DNA, a fluorescent dye (propidium iodide, PI) is used which can attach to the DNA, thus offering a quick and precise technique. PI cannot pass through the cell membrane and its signal intensity can be considered as directly proportional to quantity of cellular DNA. Cells whose cell membranes are damaged or have changed permeability are counted as dead ones. The assay was performed by seeding the cells of different cell lines at a density of 3000-7500 cells/well (in 200µl medium) in culture plates followed by incubation for 24h at 37 °C in humidified 5% CO2/95% air atmospheric conditions. The medium was removed; the compounds were added to the plates at 10 µM concentrations (in 0.1% DMSO) in triplicates, followed by incubation for 48 h. DMSO (0.1%) was used as control. After incubation, medium was removed followed by the addition of PI (25 µl, 50µg/mL in water/medium) to each well of the plates. At -80 °C, the plates were allowed to freeze for 24 h, followed by thawing at 25 °C. A fluorometer (Polar-Star BMG Tech) was used to record the readings at excitation and emission wavelengths of 530 and 620 nm for each well. The percentage cytotoxicity of compounds was calculated using the following formula:
Where ATC= Absorbance of treated cells and AC= Absorbance of control. Erlotinib was used as positive control in the assay.

[6] = system: HT-29 (colon cancer cell line); assay: Antiproliferative assay; type: cell-based, human; settings: read-out: Antiproliferative Activity IC50 ± SEM, HT-29
Description: as §2, §3, §4, §5, §6

[7] = system: A-549 (epithelial cancer cell line); assay: Antiproliferative assay; type: cell-based, human; settings: read-out: Antiproliferative Activity IC50 ± SEM, A-549
Description: as §2, §3, §4, §5, §6

[8] = system: MCF-7 (breast cancer cell line); assay: Antiproliferative assay; type: cell-based, human; settings: read-out: Antiproliferative Activity IC50 ± SEM, MCF-7
Description: as §2, §3, §4, §5, §6

caspase-3 [9] = assay: Caspase-3 activation assay; settings: A-549, vs control untreated cells
Description: as §10, §11
Each compound (10 µL) was incubated
as §12, §13, §14, §15, §16, §17, §18, §19

[10] = Cell viability assay (MTT) on normal cell line; type: cell-based, human; settings: human, four days
Description: (§7) A cell viability test was performed using MCF-10A (human mammary gland epithelial) cell line to investigate the effect of 4a–e and 7a–e on normal cell lines. In this investigation, a concentration of 50 µM of the studied compound is employed for four days, after which cell viability is assessed.
as §1
(§8) 4.2.1. Cytotoxic activity using MTT Assay and evaluation of IC50
(§9) MTT assay was carried out to study the effect of compounds on mammary epithelial cells (MCF-10A). The medium in which cells were propagated contained Dulbecco's modified Eagle's medium (DMEM)/ Ham's F-12 medium (1:1) supplemented with epidermal growth factor (20 ng/mL), hydrocortisone (500 ng/mL), insulin (10 μg/mL), 2 mM glutamine and 10% foetal calf serum. After every 2-3 days, the cells were passaged using trypsin ethylenediamine tetra acetic acid (EDTA). The cells were seeded at a density of 10^4 cells mL-1 in flat-bottomed culture plates containing 96 wells each. After 24 h, medium was removed from the plates and the compounds in (in 0.1% DMSO) were added (in 200 μL medium to yield a final concentration of 0.1% v/v) to the wells of plates. A single compound was designated with four wells followed by incubation of plates for 96h at 37°C. After incubation, medium was removed completely from the plates followed by addition of MTT (0.4 mg/mL in medium) to each well and subsequent incubation of plates for 3h. MTT (along with the medium) was removed and DMSO (150μL) was added to each well of the culture plates, followed by vortexing and subsequent measurement of absorbance (at 540 nm) using microplate reader. […]

[11] = system: MCF-10A (human mammary gland epithelial) cell line; assay: Cell viability assay (MTT) on normal cell line; type: cell-based; settings: 50 µM, four days
Description: as §7, §1, §8, §9

[12] = MCF-10A mammary gland epithelial cells

Molecule | IC50 ([4]; Homo sapiens, PANC-1) [µM] | GI50 ([5]; Homo sapiens) [µM] | IC50 ([6]; Homo sapiens) [µM] | IC50 ([7]; Homo sapiens, A549) [µM] | IC50 ([8]; Homo sapiens, MCF7) [µM] | melting point [°C] | viability at 96 h, 50 µM [10, 12] [%] | other results
O=C(CSc1nnc(Cn2cc(-c3ccccc3)nn2)o1)Nc1nc(-c2ccc(Cl)cc2)cs1 [Compound VI] |  |  |  |  |  |  |  | GI50 (four cancer cell lines): 0.23 µM; Caspase-3 level increase (caspase-3 [1]): 7.80 times; Bcl-2 level decrease (Bcl-2): 6.3 fold; IC50 (EGFR [2]): 0.11 µM; Caspase-9 level increase (caspase-9): 19.30 times; Cytochrome-C level increase (Cytochrome-C): 13 times; Bax level elevation (Bax): 40 fold
Cc1cccc2c(-n3cc(COc4cccc5c(OCc6cn(-c7cc(=O)[nH]c8c(C)cccc78)nn6)cccc45)nn3)cc(=O)[nH]c12 [Compound 7d, 4,4′-(((naphthalene-1,5-diylbis(oxy))bis(methylene))bis(1H-1,2,3-triazole-4,1-diyl))-bis-(8-methylquinolin-2(1H)-one)] | 0.057 ± 0.005 | 0.054 | 0.057 ± 0.005 | 0.05 ± 0.005 | 0.053 ± 0.005 |  |  | IC50 (EGFR [3]): 0.097 ± 0.009 µM; fold less effective than erlotinib (EGFR IC50) (EGFR [3]; relative to erlotinib): roughly 1.3 fold; Caspase-3 Fold Change (caspase-3 [9]): 7.40; viability at 96 h, 50 µM ([10]; MCF-10A mammary gland epithelial cells (normal cell line)): 89%
COc1ccc2[nH]c(=O)cc(-n3cc(COc4cccc5c(OCc6cn(-c7cc(=O)[nH]c8ccc(OC)cc78)nn6)cccc45)nn3)c2c1 [Compound 7c, 4,4′-(((naphthalene-1,5-diylbis(oxy))bis(methylene))bis(1H-1,2,3-triazole-4,1-diyl))-bis-(6-methoxyquinolin-2(1H)-one)] | 0.075 ± 0.007 | 0.074 | 0.076 ± 0.007 | 0.07 ± 0.007 | 0.074 ± 0.007 | > 360 | 91 | 
COc1ccc2[nH]c(=O)cc(-n3cc(COc4cccc5cccc(OCc6cn(-c7cc(=O)[nH]c8ccc(OC)cc78)nn6)c45)nn3)c2c1 [Compound 4c, 4,4′-(((naphthalene-1,8-diylbis(oxy))bis(methylene))bis(1H-1,2,3-triazole-4,1-diyl))-bis-(6-methoxyquinolin-2(1H)-one)] | 0.083 ± 0.008 | 0.08 | 0.081 ± 0.008 | 0.078 ± 0.008 | 0.079 ± 0.008 | > 360 | 87 | 
4,4′-(((naphthalene-1,8-diylbis(oxy))bis(methylene))bis(1H-1,2,3-triazole-4,1-diyl))-bis-(8-methylquinolin-2(1H)-one) [Compound 4d] |  |  |  |  |  |  |  | IC50 ([4]; Panc-1): 0.098 ± 0.009 µM; GI50 [5]: 0.095 µM; times less potent than 4b (GI50) ([5]; relative to 4b): at least twofold less potent; IC50 [6]: 0.097 ± 0.009 µM; IC50 ([7]; A-549): 0.09 ± 0.009 µM; IC50 ([8]; MCF-7): 0.095 ± 0.009 µM; Cell Viability % [11]: 86%
CN(C)c1ccc(/C=C/C(=O)c2ccc3ncc(C(N)=O)c(Nc4ccc(Cl)cc4)c3c2)cc1 [III] |  |  |  |  |  |  |  | IC50 (EGFR [2]): 5.2 µM
O=c1cc(-n2cc(COc3cccc4c(OCc5cn(-c6cc(=O)[nH]c7ccccc67)nn5)cccc34)nn2)c2ccccc2[nH]1 [Compound 7a, 4,4′-(((naphthalene-1,5-diylbis(oxy))bis(methylene))bis(1H-1,2,3-triazole-4,1-diyl))-bis-(quinolin-2(1H)-one)] | 0.062 ± 0.006 |  | 0.065 ± 0.006 | 0.057 ± 0.006 | 0.059 ± 0.006 | > 360 | 89 | 
